From the supplement of paper PMC10307832

Assays:
Experiment in all cases: relative viability (nuclei count vs DMSO), 5 days (fraction); higher = more cells survive
[1] = tested on: NCI-H460
Method in brief: (§1)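 Lung cancer cell lines in 1536-well plates got either a single drug or a fixed anchor-drug dose together with five library-drug doses (not always all listed) in √10 steps, by pin tool, on the day after seeding. Nuclei were counted after 5 days, and relative viability is the treated-to-vehicle ratio of nuclei counts. Values are medians of duplicate plates.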

[2] = tested on: NCI-H1755
Method in brief: as §1

[3] = tested on: NCI-H1793
Method in brief: as §1

[4] = tested on: HCC-366
Method in brief: as §1

[5] = tested on: NCI-H2228
Method in brief: as §1

[6] = tested on: NCI-H1651
Method in brief: as §1

[7] = tested on: LC-2-ad
Method in brief: as §1

[8] = tested on: NCI-H2087
Method in brief: as §1

[9] = tested on: HCC-78
Method in brief: as §1

[10] = tested on: LOU-NH91
Method in brief: as §1

[11] = tested on: NCI-H2405
Method in brief: as §1

[12] = tested on: UMC-11
Method in brief: as §1

[13] = tested on: NCI-H1395
Method in brief: as §1

[14] = tested on: ChaGo-K-1
Method in brief: as §1

[15] = tested on: NCI-H3122
Method in brief: as §1

[16] = tested on: ABC-1
Method in brief: as §1

[17] = tested on: NCI-H1944
Method in brief: as §1

[18] = tested on: NCI-H2170
Method in brief: as §1

[19] = tested on: RERF-LC-KJ
Method in brief: as §1

[20] = tested on: PC-3 [JPC-3]
Method in brief: as §1

[21] = tested on: CAL-12T
Method in brief: as §1

[22] = tested on: LU99A
Method in brief: as §1

Molecule COc1nc(C)cnc1NS(=O)(=O)c1cccnc1-c1ccc(-c2nnco2)cc1 [Zibotentan] + N=C(N)NC(=N)NCCc1ccccc1 [Phenformin] (partner 250 µM) has a relative viability ([1]; first compound 0.08 µM) of 0.56, a relative viability ([1]; first compound 0.253 µM) of 0.147 and a relative viability ([1]; first compound 0.8 µM) of 0.496. It also gave a relative viability ([1]; first compound 2.53 µM) of 0.532, a relative viability ([2]; first compound 0.08 µM) of 0.658 and a relative viability ([2]; first compound 0.253 µM) of 0.636. It also gave a relative viability ([2]; first compound 0.8 µM) of 0.599, a relative viability ([2]; first compound 2.53 µM) of 0.703 and a relative viability ([3]; first compound 0.08 µM) of 0.404. The relative viability ([3]; first compound 0.253 µM) was 0.431, the relative viability ([3]; first compound 0.8 µM) was 0.31 and the relative viability ([3]; first compound 2.53 µM) was 0.406. The relative viability ([4]; first compound 0.08 µM) was 0.692, the relative viability ([4]; first compound 0.253 µM) was 0.62 and the relative viability ([4]; first compound 0.8 µM) was 0.577. The relative viability ([4]; first compound 2.53 µM) was 0.603, the relative viability ([5]; first compound 0.08 µM) was 0.324 and the relative viability ([5]; first compound 0.253 µM) was 0.314. For the same molecule, the relative viability ([5]; first compound 0.8 µM) was 0.444, the relative viability ([5]; first compound 2.53 µM) was 0.415 and the relative viability ([6]; first compound 0.08 µM) was 0.38. It also gave a relative viability ([6]; first compound 0.253 µM) of 0.264, a relative viability ([6]; first compound 0.8 µM) of 0.294 and a relative viability ([6]; first compound 2.53 µM) of 0.339. The relative viability ([7]; first compound 0.08 µM) was 0.564, the relative viability ([7]; first compound 0.8 µM) was 0.689 and the relative viability ([7]; first compound 2.53 µM) was 0.619. For the same molecule, the relative viability ([8]; first compound 0.08 µM) was 0.423, the relative viability ([8]; first compound 0.253 µM) was 0.428 and the relative viability ([8]; first compound 0.8 µM) was 0.54. For the same molecule, the relative viability ([8]; first compound 2.53 µM) was 0.486, the relative viability ([9]; first compound 0.08 µM) was 0.778 and the relative viability ([9]; first compound 0.253 µM) was 0.598. It also gave a relative viability ([9]; first compound 0.8 µM) of 0.581, a relative viability ([9]; first compound 2.53 µM) of 0.59 and a relative viability ([10]; first compound 0.08 µM) of 0.712. For the same molecule, the relative viability ([10]; first compound 0.253 µM) was 0.683, the relative viability ([10]; first compound 0.8 µM) was 0.798 and the relative viability ([10]; first compound 2.53 µM) was 0.819. It also gave a relative viability ([11]; first compound 0.08 µM) of 0.422, a relative viability ([11]; first compound 0.253 µM) of 0.39 and a relative viability ([11]; first compound 0.8 µM) of 0.436. The relative viability ([11]; first compound 2.53 µM) was 0.439, the relative viability ([12]; first compound 0.08 µM) was 0.318 and the relative viability ([12]; first compound 0.253 µM) was 0.291. For the same molecule, the relative viability ([12]; first compound 0.8 µM) was 0.312, the relative viability ([12]; first compound 2.53 µM) was 0.346 and the relative viability ([13]; first compound 0.08 µM) was 0.43. For the same molecule, the relative viability ([13]; first compound 0.253 µM) was 0.45, the relative viability ([13]; first compound 0.8 µM) was 0.464 and the relative viability ([13]; first compound 2.53 µM) was 0.486. For the same molecule, the relative viability ([14]; first compound 0.08 µM) was 0.563, the relative viability ([14]; first compound 0.253 µM) was 0.42 and the relative viability ([14]; first compound 0.8 µM) was 0.469. For the same molecule, the relative viability ([14]; first compound 2.53 µM) was 0.543, the relative viability ([15]; first compound 0.08 µM) was 0.378 and the relative viability ([15]; first compound 0.8 µM) was 0.408. The relative viability ([15]; first compound 2.53 µM) was 0.373, the relative viability ([16]; first compound 0.08 µM) was 0.236 and the relative viability ([16]; first compound 0.253 µM) was 0.235. For the same molecule, the relative viability ([16]; first compound 0.8 µM) was 0.252, the relative viability ([16]; first compound 2.53 µM) was 0.227 and the relative viability ([17]; first compound 0.08 µM) was 0.226. It also gave a relative viability ([17]; first compound 0.253 µM) of 0.181, a relative viability ([17]; first compound 0.8 µM) of 0.188 and a relative viability ([17]; first compound 2.53 µM) of 0.202. For the same molecule, the relative viability ([18]; first compound 0.08 µM) was 0.451, the relative viability ([18]; first compound 0.253 µM) was 0.389 and the relative viability ([18]; first compound 0.8 µM) was 0.436. For the same molecule, the relative viability ([18]; first compound 2.53 µM) was 0.39, the relative viability ([19]; first compound 0.08 µM) was 0.423 and the relative viability ([19]; first compound 0.8 µM) was 0.418. The relative viability ([19]; first compound 2.53 µM) was 0.447, the relative viability ([20]; first compound 0.08 µM) was 0.459 and the relative viability ([20]; first compound 0.253 µM) was 0.466. It also gave a relative viability ([20]; first compound 0.8 µM) of 0.474, a relative viability ([20]; first compound 2.53 µM) of 0.499 and a relative viability ([21]; first compound 0.08 µM) of 0.602. It also gave a relative viability ([21]; first compound 0.253 µM) of 0.482, a relative viability ([21]; first compound 0.8 µM) of 0.554 and a relative viability ([21]; first compound 2.53 µM) of 0.609. It also gave a relative viability ([22]; first compound 0.08 µM) of 0.922, a relative viability ([22]; first compound 0.253 µM) of 0.853 and a relative viability ([22]; first compound 0.8 µM) of 0.795. For the same molecule, the relative viability ([22]; first compound 2.53 µM) was 0.897.
